# Experimental data: patent US8952024B2, “Herbicidal pyrimidone derivatives” (E I du Pont de Nemours and Company, priority 2009, dated 2015)
# Like-named read-outs stand apart in the source and are kept apart here.
# Experiments:
# Experiment in all cases: Test A pre-/postemergence plant response
# Format in all cases: in vivo
# [1] = tested on: large crabgrass (Digitaria sanguinalis); details: for pest or weed control at 125 g/ha / pest or weed control at 500 g/ha: Digitaria sanguinalis, 240 h
# Outline: (§1)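 Injury scores (0, no effect; 100, complete control) come from visual comparison with untreated controls roughly ten days post-treatment. Test chemicals in a surfactant-containing non-phytotoxic solvent were applied as a directed soil spray preemergence and to one- to two-leaf seedlings postemergence.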
# [2] = tested on: pigweed (Amaranthus retroflexus); details: for pest or weed control at 125 g/ha / pest or weed control at 500 g/ha: Amaranthus retroflexus, 240 h
# Outline: as §1
# [3] = tested on: giant foxtail (Setaria faberii); details: for pest or weed control at 125 g/ha / pest or weed control at 500 g/ha: Setaria faberi, 240 h
# Outline: as §1
# [4] = tested on: morningglory (Ipomoea spp.); details: for pest or weed control at 125 g/ha / pest or weed control at 500 g/ha: Ipomoea, 240 h
# Outline: as §1
# corn (Zea mays) = tested on: corn (Zea mays)
# Outline: as §1
# [5] = tested on: velvetleaf (Abutilon theophrasti); details: for pest or weed control at 125 g/ha / pest or weed control at 500 g/ha: Abutilon theophrasti, 240 h
# Outline: as §1
# [6] = tested on: barnyardgrass (Echinochloa crus-galli); details: for pest or weed control at 125 g/ha / pest or weed control at 500 g/ha: Echinochloa crus-galli, 240 h
# Outline: as §1
# [7] = tested on: wheat (Triticum aestivum); details: for plant injury at 125 g/ha / plant injury at 500 g/ha: Triticum aestivum, 240 h
# Outline: as §1
# [8] = Postemergence, 125 g ai/ha, visual injury, 0 to 100 scale (0 no effect, 100 complete control), approx. ten days
# [9] = Postemergence, 500 g ai/ha, 0 to 100 scale, 0 = no effect, 100 = complete control, approx. ten days
# [10] = Preemergence, 125 g ai/ha, 0 to 100 scale, 0 = no effect, 100 = complete control
# [11] = Preemergence, 500 g ai/ha, visual injury, 0 to 100 scale (0 no effect, 100 complete control), approx. ten days
compound,measurement,setting,value
"O=C1CCCC(O)=C1C(=O)c1cnc(-c2ccccc2)n(Cc2ccccc2)c1=O [Compound 17, 5-[(2-hydroxy-6-oxo-1-cyclohexen-1-yl)carbonyl]-2-phenyl-3-(phenylmethyl)-4(3H)-pyrimidinone]",pest or weed control at 125 g/ha,"[1]; post-emergence, Postemergence, 125 g ai/ha, visual injury, 0 to 100 scale (0 no effect, 100 complete control), approx. ten days, read-out: Crabgrass, Large plant response rating",10%
same,pest or weed control at 500 g/ha,"[1]; post-emergence, Postemergence, 500 g ai/ha, 0 to 100 scale, 0 = no effect, 100 = complete control, approx. ten days, read-out: Plant response rating, Crabgrass, Large",70%
same,pest or weed control at 125 g/ha,"[1]; pre-emergence, Preemergence, 125 g ai/ha, 0 to 100 scale, 0 = no effect, 100 = complete control, read-out: Plant response rating, Crabgrass, Large",20%
same,pest or weed control at 500 g/ha,"[1]; pre-emergence, Preemergence, 500 g ai/ha, visual injury, 0 to 100 scale (0 no effect, 100 complete control), approx. ten days, read-out: Plant response rating, Crabgrass, Large",100%
same,pest or weed control at 125 g/ha,"[2]; post-emergence, Postemergence, 125 g ai/ha, visual injury, 0 to 100 scale (0 no effect, 100 complete control), approx. ten days, read-out: Pigweed plant response rating",80%
same,pest or weed control at 500 g/ha,"[2]; post-emergence, Postemergence, 500 g ai/ha, 0 to 100 scale, 0 = no effect, 100 = complete control, approx. ten days, read-out: Plant response rating, Pigweed",100%
same,pest or weed control at 125 g/ha,"[2]; pre-emergence, Preemergence, 125 g ai/ha, 0 to 100 scale, 0 = no effect, 100 = complete control, read-out: Plant response rating, Pigweed",80%
same,pest or weed control at 500 g/ha,"[2]; pre-emergence, Preemergence, 500 g ai/ha, visual injury, 0 to 100 scale (0 no effect, 100 complete control), approx. ten days, read-out: Plant response rating, Pigweed",90%
same,pest or weed control at 125 g/ha,"[3]; post-emergence, Postemergence, 125 g ai/ha, visual injury, 0 to 100 scale (0 no effect, 100 complete control), approx. ten days, read-out: Foxtail, Giant plant response rating",0%
same,pest or weed control at 500 g/ha,"[3]; post-emergence, Postemergence, 500 g ai/ha, 0 to 100 scale, 0 = no effect, 100 = complete control, approx. ten days, read-out: Plant response rating, Foxtail, Giant",30%
same,pest or weed control at 125 g/ha,"[3]; pre-emergence, Preemergence, 125 g ai/ha, 0 to 100 scale, 0 = no effect, 100 = complete control, read-out: Plant response rating, Foxtail, Giant",0%
same,pest or weed control at 500 g/ha,"[3]; pre-emergence, Preemergence, 500 g ai/ha, visual injury, 0 to 100 scale (0 no effect, 100 complete control), approx. ten days, read-out: Plant response rating, Foxtail, Giant",20%
same,pest or weed control at 125 g/ha,"[4]; post-emergence, Postemergence, 125 g ai/ha, visual injury, 0 to 100 scale (0 no effect, 100 complete control), approx. ten days, read-out: Morningglory plant response rating",20%
same,pest or weed control at 500 g/ha,"[4]; post-emergence, Postemergence, 500 g ai/ha, 0 to 100 scale, 0 = no effect, 100 = complete control, approx. ten days, read-out: Plant response rating, Morningglory",70%
same,pest or weed control at 125 g/ha,"[4]; pre-emergence, Preemergence, 125 g ai/ha, 0 to 100 scale, 0 = no effect, 100 = complete control, read-out: Plant response rating, Morningglory",0%
same,pest or weed control at 500 g/ha,"[4]; pre-emergence, Preemergence, 500 g ai/ha, visual injury, 0 to 100 scale (0 no effect, 100 complete control), approx. ten days, read-out: Plant response rating, Morningglory",10%
same,plant injury at 125 g/ha,"corn (Zea mays); Zea mays, post-emergence, 240 h, Postemergence, 125 g ai/ha, visual injury, 0 to 100 scale (0 no effect, 100 complete control), approx. ten days, read-out: Corn plant response rating",0%
same,"Corn plant response rating (crop injury, 0 = no effect, 100 = complete kill) at 500 g/ha","corn (Zea mays); Zea mays, post-emergence, 240 h, Postemergence, 500 g ai/ha, 0 to 100 scale, 0 = no effect, 100 = complete control, approx. ten days",10%
same,"Corn plant response rating (crop injury, 0 = no effect, 100 = complete kill) at 125 g/ha","corn (Zea mays); Zea mays, pre-emergence, 240 h, Preemergence, 125 g ai/ha, 0 to 100 scale, 0 = no effect, 100 = complete control",0%
same,"Corn plant response rating (crop injury, 0 = no effect, 100 = complete kill) at 500 g/ha","corn (Zea mays); Zea mays, pre-emergence, 240 h, Preemergence, 500 g ai/ha, visual injury, 0 to 100 scale (0 no effect, 100 complete control), approx. ten days",0%
same,pest or weed control at 125 g/ha,"[5]; post-emergence, Postemergence, 125 g ai/ha, visual injury, 0 to 100 scale (0 no effect, 100 complete control), approx. ten days, read-out: Velvetleaf plant response rating",100%
same,pest or weed control at 500 g/ha,"[5]; post-emergence, Postemergence, 500 g ai/ha, 0 to 100 scale, 0 = no effect, 100 = complete control, approx. ten days, read-out: Plant response rating, Velvetleaf",100%
same,pest or weed control at 125 g/ha,"[5]; pre-emergence, Preemergence, 125 g ai/ha, 0 to 100 scale, 0 = no effect, 100 = complete control, read-out: Plant response rating, Velvetleaf",40%
same,pest or weed control at 500 g/ha,"[5]; pre-emergence, Preemergence, 500 g ai/ha, visual injury, 0 to 100 scale (0 no effect, 100 complete control), approx. ten days, read-out: Plant response rating, Velvetleaf",100%
same,pest or weed control at 125 g/ha,"[6]; post-emergence, Postemergence, 125 g ai/ha, visual injury, 0 to 100 scale (0 no effect, 100 complete control), approx. ten days, read-out: Barnyardgrass plant response rating",10%
same,pest or weed control at 500 g/ha,"[6]; post-emergence, Postemergence, 500 g ai/ha, 0 to 100 scale, 0 = no effect, 100 = complete control, approx. ten days, read-out: Plant response rating, Barnyardgrass",70%
same,pest or weed control at 125 g/ha,"[6]; pre-emergence, Preemergence, 125 g ai/ha, 0 to 100 scale, 0 = no effect, 100 = complete control, read-out: Plant response rating, Barnyardgrass",0%
same,pest or weed control at 500 g/ha,"[6]; pre-emergence, Preemergence, 500 g ai/ha, visual injury, 0 to 100 scale (0 no effect, 100 complete control), approx. ten days, read-out: Plant response rating, Barnyardgrass",80%
same,plant injury at 125 g/ha,"[7]; post-emergence, Postemergence, 125 g ai/ha, visual injury, 0 to 100 scale (0 no effect, 100 complete control), approx. ten days, read-out: Wheat plant response rating",0%
same,plant injury at 500 g/ha,"[7]; post-emergence, Postemergence, 500 g ai/ha, 0 to 100 scale, 0 = no effect, 100 = complete control, approx. ten days, read-out: Plant response rating, Wheat",10%
same,plant injury at 125 g/ha,"[7]; pre-emergence, Preemergence, 125 g ai/ha, 0 to 100 scale, 0 = no effect, 100 = complete control, read-out: Plant response rating, Wheat",0%
same,plant injury at 500 g/ha,"[7]; pre-emergence, Preemergence, 500 g ai/ha, visual injury, 0 to 100 scale (0 no effect, 100 complete control), approx. ten days, read-out: Plant response rating, Wheat",0%
Cc1ccc(-n2c(-c3ccccc3)ncc(C(=O)C3=C(O)CCCC3=O)c2=O)c(C)c1 [Compound 28],"Crabgrass, Large plant response rating",[1]; [8],40
same,"Plant response rating, Crabgrass, Large",[1]; [9],80
same,"Plant response rating, Crabgrass, Large",[1]; [10],20
same,"Plant response rating, Crabgrass, Large",[1]; [11],60
same,Pigweed plant response rating,[2]; [8],100
same,"Plant response rating, Pigweed",[2]; [9],100
same,"Plant response rating, Pigweed",[2]; [10],80
same,"Plant response rating, Pigweed",[2]; [11],100
same,"Foxtail, Giant plant response rating",[3]; [8],30
same,"Plant response rating, Foxtail, Giant",[3]; [9],80
same,"Plant response rating, Foxtail, Giant",[3]; [10],0
same,"Plant response rating, Foxtail, Giant",[3]; [11],30
same,Morningglory plant response rating,[4]; [8],0
same,"Plant response rating, Morningglory",[4]; [9],10
same,"Plant response rating, Morningglory",[4]; [10],20
same,"Plant response rating, Morningglory",[4]; [11],80
same,Corn plant response rating,corn (Zea mays); [8],0
same,"Plant response rating, Corn",corn (Zea mays); [9],0
same,"Plant response rating, Corn",corn (Zea mays); [10],0
same,"Plant response rating, Corn",corn (Zea mays); [11],0
same,Velvetleaf plant response rating,[5]; [8],100
same,"Plant response rating, Velvetleaf",[5]; [9],100
same,"Plant response rating, Velvetleaf",[5]; [10],20
same,"Plant response rating, Velvetleaf",[5]; [11],80
same,Barnyardgrass plant response rating,[6]; [8],30
same,"Plant response rating, Barnyardgrass",[6]; [9],90
same,"Plant response rating, Barnyardgrass",[6]; [10],10
same,"Plant response rating, Barnyardgrass",[6]; [11],70
same,Wheat plant response rating,[7]; [8],0
same,"Plant response rating, Wheat",[7]; [9],0
same,"Plant response rating, Wheat",[7]; [10],0
same,"Plant response rating, Wheat",[7]; [11],0
